Data as given in PubChem BioAssay (NCI).
Several values for one entry are separate records, joined by “and”; a condition that tells them apart may be missing. Equal entries are not always repeated.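 Grown in 96-well plates, cells were treated for 48 hours with each compound at five concentrations. Insufficient inhibition: endpoint recorded as highest concentration tested. GI50 marks 50% less growth. TGI is the concentration that stops growth completely.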

Columns and labels:
Assay in all cases: growth of human tumour cells (NCI), 48 h
[1] = system: HT29 colon
[2] = system: U251 CNS
[3] = system: SN12C renal
[4] = system: OVCAR-8 ovarian
[5] = system: ACHN renal
[6] = system: UACC-257 melanoma
[7] = system: LOX IMVI melanoma
[8] = system: HCT-116 colon
[9] = system: MDA-MB-231 breast
[10] = system: T-47D breast

Structure (SMILES): CC(CN(C)C)/C(=N\Nc1ccccc1)c1ccccc1 (centres undefined)
- TGI [1]: 17.9 µM
- TGI [2]: 5.88 µM
- TGI [3]: > 100 µM
- TGI [4]: > 100 µM
- TGI [5]: 2.08 µM
- TGI [6]: 15.3 µM
- TGI [7]: 4.16 µM
- TGI [8]: > 100 µM

Structure (SMILES): Cc1cccc(/C=N/NC(=S)N2CCCC2)n1
- GI50 [1]: 4.49 µM
- TGI [1]: > 100 µM
- GI50 [2]: 0.821 µM
- TGI [2]: > 100 µM
- GI50 [3]: 0.719 µM
- GI50 [4]: 0.624 µM
- TGI [4]: > 100 µM
- GI50 [9]: 1.14 µM
- GI50 [5]: 1.44 µM
- TGI [6]: 9.51 µM and 12.1 µM
- TGI [7]: > 41.4 µM
- GI50 [10]: 0.267 µM
- TGI [10]: 7.68 µM

Structure (SMILES): CCCCCCC[CH2][Sn]([CH2]CCCCCCC)([O]c1cccc2cccnc12)[O]c1cccc2cccnc12
- GI50 [1]: 2.04 µM
- TGI [1]: 3.94 µM
- GI50 [2]: 1.72 µM
- TGI [2]: 3.25 µM
- GI50 [3]: 1.96 µM
- TGI [3]: 4.32 µM
- GI50 [4]: 2.39 µM
- TGI [4]: 10.4 µM
- GI50 [5]: 2.98 µM
- TGI [5]: 11.1 µM
- GI50 [6]: 1.56 µM
- TGI [6]: 4.56 µM
- GI50 [7]: 1.77 µM
- TGI [7]: 3.64 µM
- GI50 [8]: 2.37 µM
- TGI [8]: 10.1 µM

Structure (SMILES): CC1(C)C2CCC13C(=O)C1OC3(C2)C2C(=O)c3ccccc3C(=O)C12 (centres undefined)
- GI50 [1]: > 100 µM
- TGI [1]: > 100 µM
- GI50 [2]: > 100 µM
- TGI [2]: > 100 µM
- GI50 [3]: > 100 µM
- TGI [3]: > 100 µM
- GI50 [4]: > 100 µM
- TGI [4]: > 100 µM
- GI50 [9]: 2.44 µM
- TGI [9]: 7.98 µM
- GI50 [5]: > 100 µM
- TGI [5]: > 100 µM
- GI50 [6]: > 100 µM
- TGI [6]: > 100 µM
- GI50 [10]: > 100 µM
- TGI [10]: > 100 µM
- GI50 [8]: > 100 µM
- TGI [8]: > 100 µM

Structure (SMILES): COC1CC(O[C@H]2CC[C@@]3(C)[C@H](CC[C@@H]4[C@@H]3CC[C@]3(C)[C@@H](C5=CC(=O)OC5)[C@@H](OC(C)=O)C[C@]43O)C2)OC(C)C1O (some centres undefined)
- GI50 [1]: < 0.01 µM
- TGI [1]: < 0.01 µM
- GI50 [2]: < 0.01 µM
- TGI [2]: < 0.01 µM
- GI50 [4]: < 0.01 µM
- TGI [4]: < 0.01 µM
- GI50 [9]: < 0.01 µM
- TGI [9]: < 0.0155 µM
- GI50 [5]: < 0.01 µM
- TGI [5]: < 0.01 µM
- GI50 [6]: < 0.01 µM
- TGI [6]: < 0.01 µM
- GI50 [7]: < 0.01 µM
- TGI [7]: < 0.01 µM
- GI50 [10]: < 0.01 µM
- TGI [10]: < 0.01 µM
- GI50 [8]: < 0.01 µM
- TGI [8]: < 0.01 µM

Structure (SMILES): CSc1nnc(CCC(=O)Nc2c(C)cccc2C)o1
- TGI [1]: > 100 µM
- TGI [2]: > 100 µM
- TGI [3]: > 100 µM
- TGI [4]: > 100 µM
- TGI [6]: > 100 µM
- TGI [7]: > 100 µM
- TGI [8]: > 100 µM

Structure (SMILES): CC(=O)Nc1ccc(S(=O)(=O)N/N=C/CN2C(=O)c3ccccc3C2=O)cc1
- TGI [1]: > 100 µM
- TGI [2]: > 100 µM
- TGI [3]: > 100 µM
- TGI [4]: > 100 µM
- TGI [5]: > 100 µM
- TGI [6]: > 100 µM
- TGI [7]: > 100 µM
- TGI [8]: > 100 µM

Structure (SMILES): COc1cc2ccnc3c2c(c1OC)-c1coc(SC)c1-3
- TGI [1]: > 100 µM
- TGI [2]: > 100 µM
- TGI [3]: > 100 µM
- TGI [4]: > 100 µM
- TGI [5]: > 100 µM
- TGI [6]: > 100 µM
- TGI [7]: > 100 µM
- TGI [8]: > 100 µM

Structure (SMILES): C=C/C=C/NC(=O)OCc1ccccc1
- TGI [1]: > 100 µM
- TGI [2]: > 100 µM
- TGI [3]: > 100 µM
- TGI [4]: > 100 µM
- TGI [5]: > 100 µM
- TGI [6]: > 100 µM
- TGI [7]: > 100 µM
- TGI [8]: > 100 µM
